These results are taken from patent US9677109B2, “Rapid determination of microbial growth and antimicrobial susceptibility” (priority 2013, dated 2017).

The test system of test [1] is Staphylococcus aureus (SA). Put plainly: MADM clone growth in antibiotic agar, simulated blood specimens. Type of test: cell-based. The conditions noted are these: SA in 6 μg/mL FOX, FIG. 10B, three hours. As to the method:
The MADM system used a custom microscope and pipetting robot, plus an evaluation system, as described herein. 32-channel disposable cassettes (FIG. 4A) enabled live microorganism immobilization for microscopy and fluid exchanges for different test agents. The microscope scanned 40 image fields in each flowcell channel, each channel having organisms extracted from about 3.5 μL of prepared inoculum.
Simulated blood specimens consisted of isolates spiked into 10 mL each of 29 aliquots of two short-fill CPD blood bank bags to make approximately 5 CFU/mL of bacterial target species, confirmed by quantitative culture. Spiked isolates included 14 Staphylococcus aureus (SA), 3 Pseudomonas aeruginosa (PA), or 12 non-target Gram-negative bacilli species. Dilution of each sample with 30 mL of modified TSB culture medium promoted growth. 20 additional control aliquots contained no spikes. 4-hour incubation at 35° C., followed with brief spin cleanup, ended with pellet resuspension into an electrokinetic buffer to make 1 mL samples for MADM system analysis. 20 μL sample aliquots were then pipetted into 14 cassette flowcells. A 5-minute low-voltage electrokinetic capture was performed to concentrate microorganisms on the lower surface of each flowcell where a capture coating immobilized the bacterial cells. […]

For test [2], the system named is Staphylococcus aureus (STAU). Description: MADM resistance phenotype test, respiratory specimens. Type of test: cell-based. As to the method:
(§1) (ABCC). Concurrent quantitative culture (qCx) was performed on specimens.
(§2) 20 μL samples of prepared specimen were pipetted into independent flowcell channels and a low-voltage electrical field was applied for 5 minutes. The electrical field concentrated bacteria onto a functional surface coating that immobilized the bacteria on the lower flowcell surface. Each flowcell channel received only one type of test reagent solution that contained a selective agent if required (only for channels used to test AB, sulbactam 32 μg/mL).
(§3) The instrument acquired images at 10-minutes intervals for 180 minutes, using 10 fields of view in each flowcell channel through a 20× objective. Imaging used darkfield illumination. Identification variables included response to selective agents (AB with sulbactam), cell morphology, growth morphology, and growth rate.
(§4) Identification algorithms applied to each individual immobilized bacterial cell. The system measured the amount of change in mass over time to compute growth rates. Identification consisted of computing and combining probability scores for morphology, response to selective media, and growth rates to produce a receiver operating characteristic curve (ROC) to derive classification criteria.

For another test, the system named is S. aureus (STAU). Put plainly: MADM (BACcel) growth analysis sensitivity, surveillance mini-BAL. Type of test: cell-based. Conditions: specimen 008-D7, BACcel ID STAU, 1.11 × 10^6 CFU/ml. As to the method:
(§5) Adult MICU patients with identified surrogate were included within 72 hours of intubation and if anticipated to require MV for >48 h. Moribund state or pregnancy were exclusions. Surveillance mini-BAL (Combicath, Plastimed) was performed on Day 1, 3, 5, 7 and 10 of MV. Samples were split and processed for both a) routine respiratory quantitative microbiological culture and sensitivity assays (>48 h result availability) and b) rapid (<8 h) flowcell/surface-capture assays using the MADM system. Viable microorganisms were identified using growth analysis enhanced by a focused VAP antibody panel (S. aureus, P. aeruginosa, A. baumannii). Untypable organisms were also reported. Sensitivity was assessed using growth analysis. Attending physicians were blinded to MADM system results.
(§6) BAL sample were prepared, removing debris and separating microorganisms from other sample material. Sample microorganisms were introduced into a multichannel fluidic cassette as described elsewhere herein. Bacteria were concentrated and retained on the lower surface of all flowcells using low-voltage electrical field (5 min). Antibody labeling of bacteria in flowcells was used to aid identification.
(§7) The automated digital microscopy system was used to perform darkfield imaging of 10 fields of view every 10 minutes for 180 minutes in each flowcell channel. Initial epifluorescence imaging was also performed for antibody detection. […] Identification consisted of probability scores based on microorganism morphology and growth rates. Antibody labeling identification data was also incorporated. Observed microorganisms were then classified as STAU, PSAE, or non-target. Antibiotic responses were used to aid identification when appropriate. Quantitation was performed by counting identified microorganism and computing original specimen CFU/mL.

A further test deals with Enteric. The description is as above. Type of test: cell-based. Conditions: specimen 005-D7, BACcel ID Enteric, 1.26 × 10^5 CFU/ml. As to the method: as §5, §6, §7
For another test, the system named is S. maltophilia (Steno). Described as above. Type of test: cell-based. As to the method:
as §5, §6, §7

Test [3] deals with Pseudomonas aeruginosa (PSAE). Put plainly: Culture (Cx) susceptibility result, respiratory specimens. Type of test: cell-based. As to the method: (§8) DHMC specimens were 7-21 days old. […] Controls used standard culturing methods (Cx).
as §1

Test [4] relates to Acinetobacter spp. (ABCC). The test is described as above. Conditions: ABCC specimen (specimen id not given). Type of test: cell-based, Acinetobacter sp. As to the method: as §8, §1
For test [5], the system named is Pseudomonas aeruginosa (PSAE). Description: MADM resistance phenotype test, respiratory specimens. Type of test: cell-based. The conditions noted are these: PSAE. As to the method:
as §1, §2, §3, §4

In test [6] the test system is Acinetobacter spp. (ABCC). The description is as above. Type of test: cell-based, Acinetobacter sp. The conditions noted are these: ABCC specimen (specimen id not given).

Take `CO[C@@]1(NC(=O)Cc2cccs2)C(=O)N2C(C(=O)O)=C(COC(N)=O)CS[C@@H]21` [FOX, cefoxitin]: the Clone growth entry in test [1] was “growth indicating MRSA phenotype”. For the same molecule, the MADM resistance phenotype result in [2] (specimen DH 425, Mini-BAL) is “R”; in [2] (specimen DH 427, Mini-BAL) it was “S”; in [2] (specimen DH 439, Mini-BAL), “R”; in [2] (specimen DH 440, BAL), “S”; in [2] (specimen DH 457, BAL), “S”; in [2] (specimen DH 485, BAL), “S”. In addition, the MADM resistance phenotype entry in [2] (specimen DH 509, BAL) was “S”; in test [2] (specimen DH 514, Mini-BAL), “S”; in test [2] (specimen DH 543, BAL) it was “S”; in test [2] (specimen DH 550, BAL) it was “S”; in test [2] (specimen DH 556, Mini-BAL), “S”; in [2] (specimen T12, ETA), “R”. Further, the “Phenotype, sensitivity” value was “FOX-R” in the test on S. aureus (STAU); “all growth” in the test on Enteric; “growth, TZP-” with S. maltophilia (Steno) (specimen 006-D1, BACcel ID Steno, 7.68 × 10^5 CFU/ml); “growth, TZP-” in the test on S. maltophilia (Steno) (specimen 006-D3, BACcel ID Steno, 1.60 × 10^4 CFU/ml).
As to `C[C@@H](O)[C@H]1C(=O)N2C(C(=O)O)=C(SCCN=CN)C[C@H]12` [IMP, imipenem], the “Cx (culture result) susceptibility” value was “S” in test [3] (specimen DH 430, Mini-BAL); “S” in test [3] (specimen DH 554, BAL); “S” in [3] (specimen DH 641, Mini-BAL); “S” in test [4]. Further, the MADM resistance phenotype entry was “S” in [5] (specimen DH 430, Mini-BAL); “S” in test [5] (specimen DH 554, BAL); “S” in test [5] (specimen DH 641, Mini-BAL); “S” in test [6].
